Experimental data: patent US20260001871A1, “TRIAZOLE DERIVATIVES AS MODULATORS OF MAS-RELATED G-PROTEIN RECEPTOR D” (ESCIENT PHARMACEUTICALS, INC., priority 2022, published 2026)

Target: human MRGPRD (Homo sapiens, UniProt Q8TDS7)
Test: MRGPRD antagonist activity, IP-One HTRF assay in CHO cells stably expressing human MRGPRD (versus 100 μM β-Alanine agonist)
Format: cell-based
How it was run: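 CHO cells stably expressing human MRGPRD, plated overnight at 37 °C, were treated with antagonist plus agonist in Tris-HCl/NaCl/LiCl buffer pH 8, incubated 1 h at 37 °C then 1 h at room temperature. IP-1 accumulation read by HTRF; IC50 and percent antagonism of maximum efficacy averaged, SEM reported.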

Chain of human MRGPRD (Q8TDS7 whole entry): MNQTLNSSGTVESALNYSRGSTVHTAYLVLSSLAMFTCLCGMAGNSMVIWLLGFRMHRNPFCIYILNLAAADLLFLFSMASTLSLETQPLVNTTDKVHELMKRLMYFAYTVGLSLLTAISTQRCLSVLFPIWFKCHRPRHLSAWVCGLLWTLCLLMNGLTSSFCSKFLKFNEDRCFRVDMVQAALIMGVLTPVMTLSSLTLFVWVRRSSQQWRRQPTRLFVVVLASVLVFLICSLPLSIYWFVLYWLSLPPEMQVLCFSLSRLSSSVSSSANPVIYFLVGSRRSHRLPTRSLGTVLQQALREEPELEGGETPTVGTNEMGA

SMILES | IC50
CC(=O)c1ccc(-c2cccc(-n3nnc(C(=O)Nc4ccncc4)c3C3CC3)c2)cc1 [Compound 7-274] | 500 to 1000 nM
N#Cc1cccc(-c2ccc(-n3nnc(C(=O)Nc4ccncc4)c3C3CC3)cc2)c1 [Compound 7-139] | 500 to 1000 nM
O=C(Nc1cncc2[nH]ncc12)c1nnn(-c2ccc(-c3ccccc3)cc2)c1C1CC1 [Compound 14-60] | 1000 to 3000 nM
Cc1ccc(CNC(=O)c2nnn(-c3ccc(-c4c(C)nn(C)c4C)cn3)c2C2CC2)cn1 [Compound 19-1] | 500 to 1000 nM
Cn1cc(-c2ccc(-n3nnc(C(=O)Nc4ccncc4)c3C3CC3)cc2)c(C2CC2)n1 [Compound 7-218] | > 3000 nM
Cc1cc(-c2ccc(-n3nnc(C(=O)Nc4ccncc4)c3C3CC3)cc2)sn1 [Compound 7-191] | 1000 to 3000 nM
O=C(Nc1ccncc1)c1nnn(-c2ccc(-c3ccc(OC(F)(F)F)cc3)cc2)c1C1CC1 [Compound 7-195] | 1000 to 3000 nM
COc1ccc(C2(NC(=O)c3nnn(-c4ccc(-c5ccccc5)cc4)c3C(C)C)CC2)cn1 [Compound 18-28] | 1000 to 3000 nM
CC(=O)c1cccc(-c2cc(-n3nnc(C(=O)Nc4ccncc4)c3C3CC3)ccc2-c2c(C)nn(C)c2C)c1 [Compound 25-1, 1-(3′-acetyl-6-(1,3,5-trimethyl-1H-pyrazol-4-yl)-[1,1′-biphenyl]-3-yl)-5-cyclopropyl-N-(pyridin-4-yl)-1H-1,2,3-triazole-4-carboxamide] | 1000 to 3000 nM
O=C(Nc1cnn(C(F)(F)F)c1)c1nnn(-c2ccc(-c3ccccc3)cc2)c1C1CC1 [Compound 14-80] | > 3000 nM
COCc1ccc(-c2ccc(-n3nnc(C(=O)Nc4ccnc(C)c4)c3C3CC3)cc2)cn1 [Compound 15-21] | 500 to 1000 nM
O=C(Nc1ccncc1)c1nnn(-c2ccc(-c3n[nH]cc3F)cc2)c1C1CC1 [Compound 7-130] | 500 to 1000 nM
C#Cc1cccc(-c2ccc(-n3nnc(C(=O)Nc4ccncc4)c3C3CC3)cc2)c1 [Compound 7-136] | 500 to 1000 nM
CC(=O)c1ccc(-c2cccc(-n3nnc(C(=O)Nc4ccncc4)c3C3CC3)c2)c(C)c1 [Compound 7-263] | 500 to 1000 nM
Cc1c[nH]nc1-c1ccc(-n2nnc(C(=O)Nc3ccncc3)c2C2CC2)cc1 [Compound 7-119] | 500 to 1000 nM
O=C(Nc1ccncc1)c1nnn(-c2cccc(-c3cccc(-c4ccccc4)c3)c2)c1C1CC1 [Compound 7-328] | > 3000 nM
CC(=O)c1ccccc1-c1cccc(-n2nnc(C(=O)Nc3ccncc3)c2C2CC2)c1 [Compound 7-8] | > 3000 nM
CCn1cc(C2(NC(=O)c3nnn(-c4ccc(-c5ccccc5)cc4)c3C3CC3)CC2)cn1 [Compound 18-12] | 1000 to 3000 nM
O=C(Nc1ccncc1)c1nnn(-c2cc3ccccc3s2)c1C1CC1 [Compound 4-8] | 1000 to 3000 nM
O=C(NCc1c[nH]cn1)c1nnn(-c2ccc(-c3ccccc3)cc2)c1C1CC1 [Compound 14-41] | 1000 to 3000 nM
N#CCc1ccc(-c2cccc(-n3nnc(C(=O)NC4(c5cccnc5)CC4)c3C3CC3)c2)cc1 [Compound 18-21] | 1000 to 3000 nM
CC(C)c1c(C(=O)NC2(c3cccnc3)CC2)nnn1-c1ccc(-c2ccc(C#N)nc2)cc1 [Compound 18-29] | > 3000 nM
COc1ccc(-c2cccc(-n3nnc(C(=O)Nc4ccncc4)c3C3CC3)c2)c(F)c1 [Compound 7-247] | 500 to 1000 nM
Cc1ccccc1-c1cccc(-n2nnc(C(=O)Nc3ccncc3)c2C2CC2)c1 [Compound 7-322] | 1000 to 3000 nM

SMILES | IC50
CC(=O)c1cccc(-c2cccc(-n3nnc(C(=O)NC(C)c4nc5ccccc5n4C)c3C3CC3)c2)c1 (stereo not drawn) [Compound 18-22] | > 3000 nM
CC(C)Oc1ccc(-c2ccc(-n3nnc(C(=O)Nc4ccncc4)c3C3CC3)cc2)cc1 [Compound 7-131] | 500 to 1000 nM
CCc1ccc(-n2nnc(C(=O)Nc3ccncc3)c2C2CC2)cc1-c1cccc(C(C)=O)c1 [Compound 7-317] | 1000 to 3000 nM
CC[C@H](NC(=O)c1nnn(-c2ccc(-c3ccccc3)cc2)c1C1CC1)c1ccccc1 [Compound 14-37] | 1000 to 3000 nM
O=C(Nc1ccncc1)c1nnn(-c2ccc3c(c2)CCC3)c1C1CC1 [Compound 5-1] | > 3000 nM
CCn1cc(-c2cccc(-n3nnc(C(=O)Nc4ccncc4)c3C3CC3)c2)cn1 [Compound 7-309] | 1000 to 3000 nM
CCn1cc(NC(=O)c2nnn(-c3ccc(-c4ccccc4)cc3)c2C2CC2)c(C#N)n1 [Compound 14-78] | > 3000 nM
Cc1cc(NC(=O)c2nnn(C3CC=C(c4c(C)nn(-c5ccccc5)c4C)CC3)c2C2CC2)ccn1 (stereo not drawn) [Compound 12-3] | 500 to 1000 nM
CC(C)Oc1cccc(-c2ccc(-n3nnc(C(=O)Nc4ccncc4)c3C3CC3)cc2)c1 [Compound 7-148] | 500 to 1000 nM
CC(NC(=O)c1nnn(-c2ccc(-c3ccccc3)cc2)c1C1CC1)c1cnn(C)c1 (stereo not drawn) [Compound 14-75] | > 3000 nM
CC(C)(C)c1c(C(=O)Nc2ccncc2)nnn1-c1ccc(-c2ccccc2)cc1 [Compound 4-12] | 1000 to 3000 nM
O=C(Nc1ccncc1)c1nnn(-c2ccc(-c3ccccn3)cc2)c1C1CC1 [Compound 7-200] | 1000 to 3000 nM
CC(=O)c1ccc(-c2ccc(-n3nnc(C(=O)Nc4ccncc4)c3C3CC3)cc2)s1 [Compound 7-147] | 500 to 1000 nM
COCn1cc(-c2cccc(-n3nnc(C(=O)Nc4ccncc4)c3C3CC3)c2)cn1 [Compound 7-301] | 1000 to 3000 nM
O=C(Nc1ccncc1)c1nnn(-c2cccc(-c3cnn(Cc4ccccc4)c3)c2)c1C1CC1 [Compound 7-270] | 500 to 1000 nM
N#Cc1ccccc1-c1cccc(-n2nnc(C(=O)Nc3ccncc3)c2C2CC2)c1 [Compound 7-334] | > 3000 nM
CC(C)c1ccc(-c2ccc(-n3nnc(C(=O)Nc4ccncc4)c3C3CC3)cc2)cc1 [Compound 7-214] | > 3000 nM
CCn1cc(CNC(=O)c2nnn(-c3ccc(-c4ccc(C#N)cc4)cc3)c2C2CCC2)cn1 [Compound 17-26] | 500 to 1000 nM
O=C(Nc1ccncc1)c1nnn(-c2cccc3ccccc23)c1C1CC1 [Compound 6-2, 5-cyclopropyl-1-(naphthalen-1-yl)-N-(pyridin-4-yl)-1H-1,2,3-triazole-4-carboxamide] | 100 to 500 nM
CCn1cc(CNC(=O)c2nnn(-c3ccc(-c4cccc(CC#N)c4)cc3)c2C2CC2)cn1 [Compound 16-5] | 100 to 500 nM
Cc1nn(C)c(C)c1-c1ccc(-n2nnc(C(=O)Nc3ccccn3)c2C(C)C)cc1 [Compound 17-25] | 100 to 500 nM
CC(=O)c1cccc(-c2cc(-n3nnc(C(=O)Nc4ccncc4)c3C3CC3)ccc2C)c1 [Compound 7-259] | 500 to 1000 nM
Cn1cc(-c2cccc(-n3nnc(C(=O)Nc4ccncc4)c3C3CC3)c2)cn1 [Compound 7-326] | 1000 to 3000 nM
CCc1ccc(C2(NC(=O)c3nnn(-c4ccc(-c5c(C)nn(-c6ccccc6)c5C)cc4)c3C3CC3)CC2)cn1 [Compound 9-20] | 100 to 500 nM

The next lines start with the values.

IC50 | SMILES
100 to 500 nM | COc1ccc(-c2ccc(-n3nnc(C(=O)Nc4ccncc4)c3C3CC3)cc2)cc1C [Compound 7-84]
< 100 nM | Cc1cc(NC(=O)c2nnn(-c3ccc(-c4c(C)nn(-c5ccccc5)c4C)cc3F)c2C2CC2)ccn1 [Compound 7-223]
< 100 nM | Cc1ccc(C2(NC(=O)c3nnn(-c4ccc(-c5c(C)nn(-c6ccccc6)c5C)cc4)c3C3CC3)CC2)cn1 [Compound 9-6]
100 to 500 nM | COc1ccc(-c2ccc(-n3nnc(C(=O)Nc4ccncc4)c3C3CC3)cc2)cc1 [Compound 7-27]
100 to 500 nM | N#CCc1ccc(-c2ccc(-n3nnc(C(=O)Nc4ccncc4)c3C3CC3)cc2)cc1 [Compound 7-23]
100 to 500 nM | COc1cc(-c2c(C)nn(C)c2C)ccc1-n1nnc(C(=O)NCc2ccc(C)nc2)c1C1CC1 [Compound 21-2]
100 to 500 nM | Cc1nocc1-c1ccc(-n2nnc(C(=O)Nc3ccncc3)c2C2CC2)cc1 [Compound 7-57]
100 to 500 nM | Cc1cnc(-c2ccc(-n3nnc(C(=O)Nc4ccncc4)c3C3CC3)cc2)s1 [Compound 7-89]
100 to 500 nM | CCn1nc(C)c(-c2ccc(-n3nnc(C(=O)NC4(c5cccnc5)CC4)c3C3CC3)cc2)c1C [Compound 19-2, 5-cyclopropyl-1-(4-(1-ethyl-3,5-dimethyl-1H-pyrazol-4-yl)phenyl)-N-(1-(pyridin-3-yl)cyclopropyl)-1H-1,2,3-triazole-4-carboxamide]
100 to 500 nM | CCn1cc(C2(NC(=O)c3nnn(-c4ccc(-c5ccc(C#N)c(F)c5)cc4)c3C3CC3)CC2)cn1 [Compound 18-14]
100 to 500 nM | Cc1ccc(CNC(=O)c2nnn(-c3ccc(-c4c(C)nn(C)c4C)cc3)c2C2CC2)cn1 [Compound 15-12]
100 to 500 nM | O=C(Nc1ccncc1)c1nnn(-c2ccc(-c3cnn(C4CC4)c3)cc2)c1C1CC1 [Compound 7-88]
< 100 nM | CCn1nc(C)c(-c2ccc(-n3nnc(C(=O)NCc4cccnc4C)c3C3CC3)cc2)c1C [Compound 9-5]
100 to 500 nM | CCn1nc(C)c(-c2ccc(-n3nnc(C(=O)NCc4cncc(C)c4)c3C3CC3)cc2)c1C [Compound 9-19]
100 to 500 nM | Cc1nn(-c2ccccc2)c(C)c1-c1ccc(-n2nnc(C(=O)NCc3cccnc3)c2C2CC2)cc1 [Compound 9-14]
100 to 500 nM | CS(=O)(=O)c1ccc(-c2ccc(-n3nnc(C(=O)Nc4ccncc4)c3C3CC3)cc2)cc1 [Compound 7-93]
< 100 nM | Cc1cc(NC(=O)c2nnn(-c3ccc(-c4c(C)nn5ccccc45)cc3)c2C2CC2)ccn1 [Compound 8-1]
100 to 500 nM | Cc1c(-c2ccc(-n3nnc(C(=O)Nc4ccncc4)c3C3CC3)cc2)c(CO)nn1C [Compound 7-100]
100 to 500 nM | Cc1cc(NC(=O)c2nnn(C3CC=C(c4ccc(C#N)cc4)CC3)c2C2CC2)ccn1 (stereo not drawn) [Compound 23-1, 1-(4′-cyano-2,3,4,5-tetrahydro-[1,1′-biphenyl]-4-yl)-5-cyclopropyl-N-(2-methylpyridin-4-yl)-1H-1,2,3-triazole-4-carboxamide]
100 to 500 nM | Cc1cc(NC(=O)c2nnn(-c3ccc(-c4ccccc4)cc3F)c2C2CC2)ccn1 [Compound 7-21]
< 100 nM | CCn1cc(CNC(=O)c2nnn(-c3ccc(-c4c(C)nn5ccccc45)cc3)c2C(C)C)cn1 [Compound 10-11]
